Reference: patent publication US5756092A, “Use, in a composition, as cyclooxygenase activator and/or stabilizer, of at least one pyrimidine derivative sustituted at the 6th position and a cyclooxygenase substrate” (SocieteL'Oreal S.A., priority 1995, dated 1998)

Experiments:
[1] = molecular target: T1, prostaglandin-endoperoxide synthase (PGHS) (Ovis aries, UniProt P05979); assay: Measurement of the activating and/or stabilizing power at a given concentration (oxygen consumption, Clark electrode); assay type: biochemical, sheep; settings: 0.5 mM; 37° C.; initial rate; % relative to control
T1 construct: isolated from sheep seminal gland; purchased Cayman Chemical 60100; host or cells: sheep seminal gland
T1 sequence (P05979 25-600): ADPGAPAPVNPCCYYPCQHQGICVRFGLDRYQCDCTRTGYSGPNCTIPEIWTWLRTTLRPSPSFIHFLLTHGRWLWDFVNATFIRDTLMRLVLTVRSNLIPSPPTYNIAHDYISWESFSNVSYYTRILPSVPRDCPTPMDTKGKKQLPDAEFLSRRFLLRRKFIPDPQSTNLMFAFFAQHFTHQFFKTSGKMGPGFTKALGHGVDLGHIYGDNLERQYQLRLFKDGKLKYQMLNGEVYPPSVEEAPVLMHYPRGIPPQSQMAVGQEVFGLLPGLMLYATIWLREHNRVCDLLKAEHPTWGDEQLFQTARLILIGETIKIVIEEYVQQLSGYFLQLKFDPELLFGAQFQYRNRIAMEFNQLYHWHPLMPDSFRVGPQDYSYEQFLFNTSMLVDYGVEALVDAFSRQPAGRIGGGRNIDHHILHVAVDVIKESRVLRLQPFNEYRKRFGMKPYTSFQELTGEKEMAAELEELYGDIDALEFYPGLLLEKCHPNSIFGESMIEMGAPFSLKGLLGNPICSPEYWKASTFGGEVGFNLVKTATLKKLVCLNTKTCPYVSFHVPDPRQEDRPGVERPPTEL
Text: As indicated above, the enzymatic activity of a cyclooxygenase is indicated by a consumption of oxygen. It is therefore possible to monitor the course of the reaction in progress by measuring the consumption of oxygen in the reaction medium and thus to evaluate the activity of the enzyme by measuring the consumption of oxygen.
At time T=0 of the process, a buffered solution containing a cyclooxygenase is introduced into a measuring tank and then the whole is allowed to stabilize for at least one minute.
At time T=1 minute, an appropriate quantity of enzyme substrate is added and the oxygen consumption of the reaction is recorded.
This recording makes it possible to deduce the initial rate of the reaction and the period during which the initial rate of the reaction is maintained.
When a substance potentially having an activity on the cyclooxygenase is tested, the variation of the slope in a positive or negative direction relative to the results obtained with the enzyme alone reflects either the activation or the inhibition of the activity of the enzyme.
Measurement of the activating and/or stabilizing power of pyrimidine derivatives substituted at the 6th position, at a given concentration.
The quantity of oxygen necessary for the oxidation of arachidonic acid is measured by the cyclooxygenase activity of prostaglandin-endoperoxide synthase, in the presence or absence of the derivative to be tested.
The measurements of the consumption of oxygen are performed with a Clark electrode connected to a YSI 5300 oxygen meter of the Yellow Spring Instruments trademark.
These measurements are performed in an open chamber, with constant stirring, at a temperature of 37° C.
If a graph recorder is used, the measurement of the oxygen consumption takes the form of a curve whose maximum slope makes it possible to deduce the initial rate of the reaction, and from which it is possible to calculate the period during which the initial rate of the reaction is maintained.
The measurement of the activity of the derivatives to be tested is performed under the same conditions, by adding, to the reaction medium, the derivative to be tested. It is the variation of the slope and the variation of the period during which the maximum rate is maintained which make it possible to evaluate the activity of the derivative to be tested towards cyclooxygenase.
A solution of 0.1M TRIS and 5 mM EDTA at pH=8.00 (TE solution) is prepared.
The substrate is prepared in the form of a stock solution of potassium arachidonate according to the manufacturer's procedure (Interchim, France).
The solution thus obtained has an arachidonic acid titre of 46 mM. It can be stored at 4° C. for 24 hours.
The derivatives to be tested are prepared in the form of a stock solution with a titre of 5 mM in a water/alcohol mixture (80/20) and tested with the same batch of enzyme.
At t=0, there are introduced into the measuring chamber 380 μl of TEA buffer preheated to 37° C. that are allowed to equilibrate for at least one minute.
At t=1, 300 units of enzyme (PGHS) are introduced.
The recording is initiated and the whole is again allowed to stabilize for one minute. The recording obtained gives the base level of the reaction.
After an additional minute, 10 μl of substrate are introduced and the consumption of oxygen is recorded for 2 to 3 minutes.
The initial rate of the reaction and the period during which this rate is maintained are thus determined.
The experimental conditions are identical to those above, except that the TEA buffer preheated to 37° C. is replaced by an identical buffer containing the derivative to be tested at a concentration of 0.5 mM.

[2] = test system: hair growth; settings: U.S. Pat. No. 4,596,812; cited from earlier work
[3] = U.S. Pat. No. 4,596,812; cited from earlier work
[4] = molecular target: T2, prostaglandin-endoperoxide synthase (Ovis aries, UniProt P05979); assay: Calculation of the 50% activating concentration (AC 50) for the activation of prostaglandin-endoperoxide synthase; assay type: biochemical, sheep
T2 construct: isolated from sheep seminal gland
T2 sequence (P05979 25-600): T1 sequence (P05979 25-600)
Experimental: Calculation of the 50% activating concentration (AC 50) of 2,4-diamino-6-piperidinopyrimidine 3-oxide for the activation of prostaglandin-endoperoxide synthase. 2,4-diamino-6-piperidinopyrimidine 3-oxide Activation
By a statistical calculation (log-linear regression, the correlation coefficient being 0.98 and the significance of the binding less than or equal to 0.01), an AC 50 is found for 40 μM for 2,4-diamino-6-piperidinopyrimidine 3-oxide.

[5] = test system: cyclooxygenase; settings: literature; cited from earlier work
[6] = test system: lipoxygenase; settings: literature (Bedford et al., 1983); cited from earlier work

**Q.** Which activation at 500 µM [1] does the source give for `CCCCOc1cc(N)[n+]([O-])c(N)n1` [2,4-diamino-6-butyloxypyrimidine 3-oxide] here?
**A.** 13%

**Q.** Which activation at 500 µM [1] does the source give for `Nc1cc(N2CCCCC2)nc(N)[n+]1[O-]` [2,4-diamino-6-piperidinopyrimidine 3-oxide] here?
**A.** 58%

**Q.** And the “capacity to promote hair growth” value [2]?
**A.** capacity to promote hair growth

**Q.** What about the antihypertensive effects [3] of the same molecule?
**A.** antihypertensive effects

**Q.** What about the activation at 15.6 µM ([4]; 15.6 μM, read-out: Activation (% of control)) of the same molecule?
**A.** 23%

**Q.** And the activation at 62.5 µM ([4]; 62.5 μM, read-out: Activation (% of control))?
**A.** 61%

**Q.** What about the activation at 125 µM ([4]; 125 μM, read-out: Activation (% of control)) of the same molecule?
**A.** 90%

**Q.** What about the activation at 250 µM ([4]; 250 μM, read-out: Activation (% of control)) of the same molecule?
**A.** 102%

**Q.** And the activation at 500 µM ([4]; 500 μM, read-out: Activation (% of control))?
**A.** 146%

**Q.** What about the activation at 1000 µM ([4]; 1000 μM, read-out: Activation (% of control)) of the same molecule?
**A.** 181%

**Q.** And the AC50 ([4]; log-linear regression, correlation coefficient 0.98)?
**A.** 40 µM

**Q.** For `Nc1cc(N2CCCCC2)nc(N)n1` [2,4-diamino-6-piperidinopyrimidine], which activation at 500 µM [1] is on record?
**A.** -14%

**Q.** For `CCCNc1cc(N(C)C)nc(NCCC)[n+]1[O-]` [2,4-dipropylamino-6-dimethylaminopyrimidine 3-oxide], which activation at 500 µM [1] is on record?
**A.** 171%

**Q.** With `CCCNc1cc(N(C)C)nc(N)[n+]1[O-]` [2-amino-4-propylamino-6-dimethylaminopyrimidine 3-oxide] as the molecule, how does the activation at 500 µM [1] read?
**A.** 117%

**Q.** For `CCCNc1cc(N2CCCCC2)nc(N)[n+]1[O-]` [2-amino-4-propylamino-6-piperidinopyrimidine 3-oxide], which activation at 500 µM [1] is on record?
**A.** 173%

**Q.** For `Cc1nc(N2CCCCC2)cc(N)[n+]1[O-]` [2-methyl-4-amino-6-piperidinopyrimidine 3-oxide], which activation at 500 µM [1] is on record?
**A.** 24%

**Q.** Which “effect on cyclooxygenase activity” value [5] does the source give for `O=C1C(O)=C(O)C(=O)c2cc(Cl)ccc21` [6-chloro-2,3-dihydroxy-1,4-naphthoquinone] here?
**A.** cyclooxygenase stimulating agent

**Q.** What about the effect on lipoxygenase [6] of the same molecule?
**A.** lipoxygenase inhibitor

**Q.** For `COc1ccc2c(c1)c(CC(=O)O)c(C)n2C(=O)c1ccc(Cl)cc1` [Indomethacin, 1-(4-Chlorobenzoyl)-5-methoxy-2-methyl-1H-indole-3-acetic acid], which activation at 500 µM [1] is on record?
**A.** -100%
